In article PMC6348444, “New Water-Soluble Copper(II) Complexes with Morpholine–Thiosemicarbazone Hybrids: Insights into the Anticancer and Antibacterial Mode of Action” (Journal of Medicinal Chemistry, 2018):

What was measured:
HEK293 cells = assay: MTT cytotoxicity assay, HEK293; type: cell-based, human; conditions: for SF (selectivity factor): IC50(HEK293)/IC50(A2780); for IC50: MTT assay, 72 h exposure, noncancerous cells
[1] = test system: Pseudomonas aeruginosa PAO1 CECT 4122 (ATCC 15692); assay: MIC microdilution, P. aeruginosa; type: cell-based; conditions: planktonic cells; for P. aeruginosa MIC50: growth inhibited at 50%; for P. aeruginosa MIC100: lowest concentration completely inhibiting growth
Procedure: Wild-type P. aeruginosa PAO1 strain CECT 4122 (ATCC 15692) and S. aureus CECT 86 (ATCC 12600) were obtained from the Spanish Type Culture Collection (CECT). All strains were routinely cultivated in TSB medium (Sharlab, Spain) at 37 °C. MIC assays were determined by the microdilution method using TSB broth following the method described by the Clinical and Laboratory standards Institute.[94] In brief, compounds were diluted in a 96-well microtiter plate (tissue culture-treated polystyrene; […]

Solubility in water = type: physicochemical; conditions: sterile water stock solutions
Procedure: Human ovarian carcinoma cells A2780 and A2780cisR and human embryonic kidney HEK293 were obtained from ATCC. A2780 and A2780cisR cells were cultured in RPMI 1640 medium containing 10% FBS. HEK293 were cultured in DMEM medium containing 10% FBS. All cells were grown in tissue culture 25 cm^2 flasks (BD Biosciences, Singapore) at 37 °C in a humidified atmosphere of 95% air and 5% CO2. All drug stock solutions were prepared in sterile water. The amount of Cu was determined by ICP–OES.

A2780 cells = assay: Cellular accumulation of Cu by ICP-MS; type: cell-based, human; conditions: 24 h exposure, 1 μM
Source text: The ability of anticancer drugs to penetrate biological membranes, tissues, and barriers underlies their biological, pharmacokinetic, and metabolic properties. These properties can be predicted by calculating physicochemical characteristics of drug candidates using molecular descriptors.[30] […] The results are shown in Table S7 in the Supporting Information. On the basis of the calculated physicochemical parameters, we determined if novel compounds belonged to the drug-like chemical space, which is commonly defined by the well-known Lipinski rule, or to the known drug space (KDS), which includes all small compounds in medical use.[31] […] Following the calculations, we determined the lipophilicity of all compounds experimentally (log D7.4, Tables 1 and 2). It is known that cancer cells accumulate hydrophilic compounds to a smaller extent relative to hydrophobic compounds, thereby affecting their activity. […] As expected, proligands were more lipophilic than the corresponding Cu(II) species, which are positively charged at physiological pH (Figure 3b). […] The lipophilicity of 2–5 increased in the following order 4 < 2 < 3 < 5, and correlated well with their cytotoxicity in cancer cells, with the exception of 3. Subsequently, we determined the total cellular accumulation of Cu in A2780 cells by ICP–MS upon 24 h exposure to 1–6 in comparison with CuCl2 (Table 2). […] The accumulation increased in the order 6 < 1 < 3 < 4 < 2 < 5.
Cellular accumulation of 1–6 was determined in A2780 cells. Cells were seeded into Cellstar 6-well plates (Greiner Bio-one) at a density of 60 × 10^4 cells/well (2 mL per well). After the cells were allowed to resume exponential growth for 24 h, they were exposed to 1–6 at 1 μM for 24 h at 37 °C. The cells were washed twice with 1 mL of PBS and lysed with RIPA lysis buffer for 5–10 min at 4 °C. The cell lysates were scraped from the wells and transferred to separate 1.5 mL microtubes. The supernatant was then collected after centrifugation (13 000 rpm, 4 °C for 15 min) and total protein content of each sample was quantified via Bradford’s assay. Cell lysates were transferred to 2 mL glass vials and then digested with ultrapure 65% HNO3 at 100 °C for 24 h. The resulting solution was diluted to 1 mL (2–4% v/v HNO3) with ultrapure Milli-Q water. Cu content of each sample was quantified by ICP–MS. In was used as an internal standard. Cu and In were measured at m/z 64 and m/z 115, respectively. Metal standards for calibration curve (0, 0.5, 1, 2, 5, 10, 20, and 40 ppb) were freshly prepared before each measurement. All readings were made in triplicates in He mode. For temperature-dependent cellular accumulation experiments, A2780 cells were seeded into 35 n 10 mm tissue culture plates at a density of 60 0 10^4 cells/plate. After the cells were allowed to resume exponential growth for 24 h, they were exposed to 2 at 3 μM for 10, 30, 60, and 120 min at 37 and 4 °C. The subsequent analysis was performed as described above. For energy-dependent experiments, A2780 cells were seeded into 35 5 10 mm tissue culture plates at a density of 1 0 10^6 cells/plate. After the cells were allowed to resume exponential growth for 24 h, they were preincubated with oligomycin (5 μM) for 1 or 4 h or with cycloheximide (100 μM) for 4 h and further co-incubated with 3 μM of 2 at 37 °C. To induce total starvation, after the cells were allowed to resume exponential growth for 24 h, RPMI media was replaced with HBSS, and cells were preincubated in HBSS for 1 h and further incubated with 3 μM of 2 for 1 h at 37 °C. The subsequent analysis was performed as described above.

A2780cisR cells = assay: MTT cytotoxicity assay, A2780cisR; type: cell-based, human; conditions: for RF (resistance factor): IC50(A2780cisR)/IC50(A2780); for IC50: MTT assay, 72 h exposure, cisplatin-resistant A2780cisR, read-out: IC50 A2780cis

[Cl][Cu][S]C(=NN=Cc1ccc(CN2CCOCC2)cn1)Nc1ccccc1 [complex 5, [Cu(L^5)Cl]]
SF (selectivity factor) (HEK293 cells): 2.2 | IC50 (HEK293 cells): 20 ± 3 nM | P. aeruginosa MIC50 [1]: 200 µg/mL | P. aeruginosa MIC100 [1]: 450 µg/mL | solubility in water (Solubility in water): ≤ 2000 µM | cellular accumulation A2780 (A2780 cells): 4.1 ± 0.9 nmol Cu/mg protein | RF (resistance factor) (A2780cisR cells): 1.9 | IC50 (A2780cisR cells): 17 ± 2 nM

CN(C)C(=NN=Cc1ccc(CN2CCOCC2)cn1)[S][Cu][Cl] [complex 2, [Cu(L^2)Cl]]
SF (selectivity factor) (HEK293 cells): 2.7 | IC50 (HEK293 cells): 32 ± 8 nM | P. aeruginosa MIC50 [1]: 70 µg/mL | P. aeruginosa MIC100 [1]: 200 µg/mL | solubility in water (Solubility in water): ≤ 2000 µM | cellular accumulation A2780 (A2780 cells): 3.9 ± 0.6 nmol Cu/mg protein | RF (resistance factor) (A2780cisR cells): 2.5 | IC50 (A2780cisR cells): 30 ± 3 nM
